# Measurements as given in ChEMBL document CHEMBL1201861, “Genomics of Drug Sensitity in Cancer screening data, Wellcome Trust Sanger Institute”.
# Columns and labels:
# Assay in all cases: cells
# Assay type in all cases: functional, cell-based, Homo sapiens
# COLO-800 = settings: Homo sapiens, COLO-800;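 note: growth inhibition of COLO-800 cells, read out with a cell viability assay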
# Description: SANGER: Inhibition of human COLO-800 cell growth in a cell viability assay.
# COR-L88 = settings: Homo sapiens, COR-L88;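 note: growth inhibition of COR-L88 cells, read out with a cell viability assay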
# Description: SANGER: Inhibition of human COR-L88 cell growth in a cell viability assay.
# D-392MG = settings: Homo sapiens, D-392MG
# DEL = settings: Homo sapiens, DEL;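 note: growth inhibition of the human DEL cell line, read out with a cell viability assay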
# Description: SANGER: Inhibition of human DEL cell growth in a cell viability assay.
# DOHH-2 = settings: Homo sapiens, DOHH-2;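 note: growth inhibition of human DOHH-2 cells, read out with a cell viability assay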
# Description: SANGER: Inhibition of human DOHH-2 cell growth in a cell viability assay.
# ES5 = settings: Homo sapiens, ES5;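 note: growth inhibition of human ES5 cells, read out by a cell viability assay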
# Description: SANGER: Inhibition of human ES5 cell growth in a cell viability assay.
# ES6 = settings: Homo sapiens, ES6;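 note: growth inhibition of human ES6 cells, read out with a cell viability assay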
# Description: SANGER: Inhibition of human ES6 cell growth in a cell viability assay.
# ES7 = settings: Homo sapiens, ES7;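 note: growth inhibition of cultured human ES7 cells, read out as cell viability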
# Description: SANGER: Inhibition of human ES7 cell growth in a cell viability assay.
# EW-13 = settings: Homo sapiens, EW-13;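 note: growth inhibition of EW-13 cells, read out with a cell viability assay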
# Description: SANGER: Inhibition of human EW-13 cell growth in a cell viability assay.
# EOL1 = settings: Homo sapiens, EOL1;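 note: growth inhibition of EoL-1 cells, read out by a cell viability assay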
# Description: SANGER: Inhibition of human EoL-1-cell cell growth in a cell viability assay.
# HC-1 = settings: Homo sapiens, HC-1;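 note: growth inhibition of HC-1 cells measured by a cell viability assay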
# Description: SANGER: Inhibition of human HC-1 cell growth in a cell viability assay.
# HCC2218 = settings: Homo sapiens, HCC2218;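 note: cell viability assay read-out, with IC50 given as the concentration that inhibits growth of the cell line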
# Description: SANGER: Inhibition of human HCC2218 cell growth in a cell viability assay.
# HDLM-2 = settings: Homo sapiens, HDLM-2;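 note: cell viability assay measuring suppression of HDLM-2 proliferation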
# Description: SANGER: Inhibition of human HDLM-2 cell growth in a cell viability assay.
# HL-60 = settings: Homo sapiens, HL-60;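 note: growth inhibition of human HL-60 cells, read out with a cell viability assay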
# Description: SANGER: Inhibition of human HL-60 cell growth in a cell viability assay.
# K562 = settings: Homo sapiens, K562
# Description: SANGER: Inhibition of human K-562 cell growth in a cell viability assay.
# KS-1 = settings: Homo sapiens, KS-1;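 note: growth inhibition of KS-1 cells, read out with a cell viability assay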
# Description: SANGER: Inhibition of human KS-1 cell growth in a cell viability assay.
# LAMA-84 = settings: Homo sapiens, LAMA-84;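 note: growth inhibition of LAMA-84 cells, read out with a cell viability assay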
# Description: SANGER: Inhibition of human LAMA-84 cell growth in a cell viability assay.
# LB2518-MEL = settings: Homo sapiens, LB2518-MEL;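 note: growth inhibition of human LB2518-MEL cells, measured with a cell viability assay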
# Description: SANGER: Inhibition of human LB2518-MEL cell growth in a cell viability assay.
# LB831-BLC = settings: Homo sapiens, LB831-BLC;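 note: growth inhibition of LB831-BLC cells, read out with a cell viability assay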
# Description: SANGER: Inhibition of human LB831-BLC cell growth in a cell viability assay.
# Lu-65 = settings: Homo sapiens, Lu-65;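 note: growth inhibition of Lu-65 cancer cells, read out by a cell viability assay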
# Description: SANGER: Inhibition of human LU-65 cell growth in a cell viability assay.
# LXF-289 cell line = settings: Homo sapiens, LXF-289
# Description: SANGER: Inhibition of human LXF-289 cell growth in a cell viability assay.
# MLMA = settings: Homo sapiens, MLMA;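 note: growth inhibition of MLMA cells (human), determined through a cell viability readout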
# Description: SANGER: Inhibition of human MLMA cell growth in a cell viability assay.
# MN-60 = settings: Homo sapiens, MN-60;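 note: growth inhibition of the MN-60 cell line, determined with a cell viability assay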
# Description: SANGER: Inhibition of human MN-60 cell growth in a cell viability assay.
# MZ1-PC = settings: Homo sapiens, MZ1-PC;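 note: cell viability assay measuring growth inhibition of human MZ1-PC cells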
# Description: SANGER: Inhibition of human MZ1-PC cell growth in a cell viability assay.
# NB13 = settings: Homo sapiens, NB13;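 note: cell viability readout measuring growth inhibition of human NB13 cells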
# Description: SANGER: Inhibition of human NB13 cell growth in a cell viability assay.
# NB17 = settings: Homo sapiens, NB17;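 note: growth inhibition of NB17 cells, read out with a cell viability assay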
# Description: SANGER: Inhibition of human NB17 cell growth in a cell viability assay.
# NB6 = settings: Homo sapiens, NB6;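 note: growth inhibition of NB6 cells, read out by a cell viability assay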
# Description: SANGER: Inhibition of human NB6 cell growth in a cell viability assay.
# NCI-H1092 = settings: Homo sapiens, NCI-H1092;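 note: cell growth inhibition measured with a cell viability assay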
# Description: SANGER: Inhibition of human NCI-H1092 cell growth in a cell viability assay.
# NCI-H1395 = settings: Homo sapiens, NCI-H1395;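 note: cell viability assay read-out quantifying reduced proliferation of human NCI-H1395 cells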
# Description: SANGER: Inhibition of human NCI-H1395 cell growth in a cell viability assay.
# NCI-H2126 = settings: Homo sapiens, NCI-H2126;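 note: growth inhibition of the cancer cell line, determined with a cell viability readout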
# Description: SANGER: Inhibition of human NCI-H2126 cell growth in a cell viability assay.
# NKM-1 = settings: Homo sapiens, NKM-1;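 note: growth inhibition of NKM-1 cells, read out with a cell viability assay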
# Description: SANGER: Inhibition of human NKM-1 cell growth in a cell viability assay.
# RKO = settings: Homo sapiens, RKO;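 note: growth inhibition of human RKO cells, read out with a cell viability assay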
# Description: SANGER: Inhibition of human RKO cell growth in a cell viability assay.
# SCH = settings: Homo sapiens, SCH;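 note: growth inhibition of human SCH cells, read out in a cell viability assay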
# Description: SANGER: Inhibition of human SCH cell growth in a cell viability assay.
# SF-126 = settings: Homo sapiens, SF-126;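 note: growth inhibition of human SF126 cells, read out with a cell viability assay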
# Description: SANGER: Inhibition of human SF126 cell growth in a cell viability assay.
# SJSA-1 = settings: Homo sapiens, SJSA-1;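 note: growth inhibition of human SJSA-1 cells, read out through a cell viability measurement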
# Description: SANGER: Inhibition of human SJSA-1 cell growth in a cell viability assay.
# SK-N-DZ = settings: Homo sapiens, SK-N-DZ;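 note: growth inhibition of the cancer cell line, read out through a viability assay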
# Description: SANGER: Inhibition of human SK-N-DZ cell growth in a cell viability assay.
# SK-PN-DW = settings: Homo sapiens, SK-PN-DW;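 note: growth inhibition measured with a viability assay on these cells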
# Description: SANGER: Inhibition of human SK-PN-DW cell growth in a cell viability assay.
# SK-UT-1 = settings: Homo sapiens, SK-UT-1;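 note: growth inhibition of SK-UT-1 cells, measured by a cell viability assay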
# Description: SANGER: Inhibition of human SK-UT-1 cell growth in a cell viability assay.
# 697 = settings: Homo sapiens
# Description: SANGER: Inhibition of human 697 cell growth in a cell viability assay.
# A253 cell line = settings: Homo sapiens, A253;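 note: growth inhibition of A253 cells, read out with a cell viability assay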
# Description: SANGER: Inhibition of human A253 cell growth in a cell viability assay.
# A3-KAW = settings: Homo sapiens, A3-KAW;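 note: growth inhibition of human A3-KAW cells, read out with a cell viability assay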
# Description: SANGER: Inhibition of human A3-KAW cell growth in a cell viability assay.
# ATN-1 = settings: Homo sapiens, ATN-1;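 note: growth inhibition of human ATN-1 cells, read out with a cell viability assay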
# Description: SANGER: Inhibition of human ATN-1 cell growth in a cell viability assay.
# TE-12 = settings: Homo sapiens, TE-12;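 note: growth inhibition of TE-12 cells, read out by a cell viability assay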
# Description: SANGER: Inhibition of human TE-12 cell growth in a cell viability assay.
# TE-5 = settings: Homo sapiens, TE-5;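 note: inhibition of cell growth, read out by a cell viability assay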
# Description: SANGER: Inhibition of human TE-5 cell growth in a cell viability assay.
# TE-8 = settings: Homo sapiens, TE-8;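 note: growth inhibition of TE-8 cells, measured with a cell viability readout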
# Description: SANGER: Inhibition of human TE-8 cell growth in a cell viability assay.
# U-266 = settings: Homo sapiens, U-266
# Description: SANGER: Inhibition of human U-266 cell growth in a cell viability assay.
# HCE-4 = settings: Homo sapiens, HCE-4;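 note: cell viability assay measuring inhibition of growth in the human HCE-4 cell line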
# Description: SANGER: Inhibition of human HCE-4 cell growth in a cell viability assay.
# SBC-1 = settings: Homo sapiens, SBC-1;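 note: cell viability assay measuring growth inhibition of the SBC-1 cell line, IC50 being the concentration that halves growth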
# Description: SANGER: Inhibition of human SBC-1 cell growth in a cell viability assay.
# TGW = settings: Homo sapiens, TGW;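 note: growth inhibition of human TGW cells, read out with a cell viability assay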
# Description: SANGER: Inhibition of human TGW cell growth in a cell viability assay.
smiles,measurement,setting,value
C#Cc1cccc(Nc2ncnc3cc(OCCOC)c(OCCOC)cc23)c1 [ERLOTINIB],IC50,COLO-800,> 2 µM
same,IC50,COR-L88,> 2 µM
same,IC50,D-392MG,> 2000 nM
same,IC50,DEL,> 2000 nM
same,IC50,DOHH-2,> 2000 nM
same,IC50,ES5,> 2 µM
same,IC50,ES6,> 2000 nM
same,IC50,ES7,> 2 µM
same,IC50,EW-13,> 2 µM
same,IC50,EOL1,> 2000 nM
same,IC50,HC-1,> 2 µM
same,IC50,HCC2218,> 2 µM
same,IC50,HDLM-2,> 2 µM
same,IC50,HL-60,> 2 µM
same,IC50,K562,> 2000 nM
same,IC50,KS-1,> 2000 nM
same,IC50,LAMA-84,> 2000 nM
same,IC50,LB2518-MEL,> 2 µM
same,IC50,LB831-BLC,> 2000 nM
same,IC50,Lu-65,> 2 µM
same,IC50,LXF-289 cell line,> 2000 nM
same,IC50,MLMA,> 2000 nM
same,IC50,MN-60,> 2 µM
same,IC50,MZ1-PC,> 2000 nM
same,IC50,NB13,> 2000 nM
same,IC50,NB17,> 2000 nM
same,IC50,NB6,> 2 µM
same,IC50,NCI-H1092,> 2 µM
same,IC50,NCI-H1395,> 2 µM
same,IC50,NCI-H2126,> 2 µM
same,IC50,NKM-1,> 2000 nM
same,IC50,RKO,> 2 µM
same,IC50,SCH,> 2 µM
same,IC50,SF-126,> 2 µM
same,IC50,SJSA-1,> 2 µM
same,IC50,SK-N-DZ,> 2 µM
same,IC50,SK-PN-DW,> 2 µM
same,IC50,SK-UT-1,> 2 µM
same,IC50,697,> 2000 nM
same,IC50,A253 cell line,> 2 µM
same,IC50,A3-KAW,> 2000 nM
same,IC50,ATN-1,> 2 µM
same,IC50,TE-12,54.4 nM
same,IC50,TE-5,> 2 µM
same,IC50,TE-8,> 2000 nM
same,IC50,U-266,> 2 µM
COc1cc(-c2nn([C@H]3CC[C@H](N4CCN(C(C)=O)CC4)CC3)c3ncnc(N)c23)ccc1NC(=O)c1cc2ccccc2n1C,IC50,COLO-800,> 5.12 µM
same,IC50,COR-L88,> 5.12 µM
same,IC50,DEL,> 5120 nM
same,IC50,DOHH-2,39.1 nM
same,IC50,ES5,> 5.12 µM
same,IC50,ES6,1960 nM
same,IC50,ES7,> 5.12 µM
same,IC50,EW-13,> 5.12 µM
same,IC50,EOL1,4550 nM
same,IC50,HC-1,3.19 µM
same,IC50,HCC2218,> 5.12 µM
same,IC50,HCE-4,2340 nM
same,IC50,HDLM-2,> 5.12 µM
same,IC50,HL-60,> 5.12 µM
same,IC50,K562,392 nM
same,IC50,KS-1,1030 nM
same,IC50,LAMA-84,147 nM
same,IC50,LB2518-MEL,> 5.12 µM
same,IC50,LB831-BLC,593 nM
same,IC50,Lu-65,> 5.12 µM
same,IC50,LXF-289 cell line,757 nM
same,IC50,MLMA,209 nM
same,IC50,MN-60,> 5.12 µM
same,IC50,MZ1-PC,595 nM
same,IC50,NB13,> 5120 nM
same,IC50,NB17,> 5120 nM
same,IC50,NB6,> 5.12 µM
same,IC50,NCI-H1092,> 5.12 µM
same,IC50,NCI-H1395,> 5.12 µM
same,IC50,NCI-H2126,> 5.12 µM
same,IC50,NKM-1,> 5120 nM
same,IC50,RKO,3.46 µM
same,IC50,SBC-1,> 5.12 µM
same,IC50,SCH,> 5.12 µM
same,IC50,SF-126,> 5.12 µM
same,IC50,SJSA-1,> 5.12 µM
same,IC50,SK-N-DZ,> 5.12 µM
same,IC50,SK-PN-DW,> 5.12 µM
same,IC50,SK-UT-1,> 5.12 µM
same,IC50,697,1730 nM
same,IC50,A253 cell line,> 5.12 µM
same,IC50,A3-KAW,> 5120 nM
same,IC50,ATN-1,> 5.12 µM
same,IC50,TE-12,404 nM
same,IC50,TE-5,> 5.12 µM
same,IC50,TE-8,242 nM
same,IC50,TGW,> 5.12 µM
same,IC50,U-266,> 5.12 µM
CC(=O)O[C@H]1C(=O)[C@@]2(C)[C@H]([C@H](OC(=O)c3ccccc3)[C@]3(O)C[C@H](OC(=O)[C@H](O)[C@@H](NC(=O)c4ccccc4)c4ccccc4)C(C)=C1C3(C)C)[C@]1(OC(C)=O)CO[C@@H]1C[C@@H]2O [PACLITAXEL],IC50,COLO-800,> 0.102 µM
same,IC50,COR-L88,0.0593 µM
same,IC50,DEL,8.45 nM
same,IC50,DOHH-2,12 nM
same,IC50,ES5,> 0.102 µM
same,IC50,ES6,95.9 nM
same,IC50,ES7,> 0.102 µM
same,IC50,EW-13,> 0.102 µM
same,IC50,EOL1,26.9 nM
same,IC50,HC-1,0.00721 µM
same,IC50,HCC2218,> 0.102 µM
same,IC50,HCE-4,7.67 nM
same,IC50,HDLM-2,0.0439 µM
same,IC50,HL-60,0.00966 µM
same,IC50,K562,15.2 nM
same,IC50,KS-1,5.82 nM
same,IC50,LAMA-84,> 102 nM
same,IC50,LB2518-MEL,0.0814 µM
same,IC50,LB831-BLC,24.8 nM
same,IC50,Lu-65,> 0.102 µM
same,IC50,LXF-289 cell line,8.18 nM
same,IC50,MLMA,74.6 nM
same,IC50,MN-60,> 0.102 µM
same,IC50,MZ1-PC,0.729 nM
same,IC50,NB13,4.91 nM
same,IC50,NB17,49.8 nM
same,IC50,NB6,> 0.102 µM
same,IC50,NCI-H1092,> 0.102 µM
same,IC50,NCI-H1395,> 0.102 µM
same,IC50,NCI-H2126,0.0277 µM
same,IC50,NKM-1,> 102 nM
same,IC50,RKO,0.00298 µM
same,IC50,SBC-1,0.0504 µM
same,IC50,SCH,> 0.102 µM
same,IC50,SF-126,0.0613 µM
same,IC50,SJSA-1,0.0177 µM
same,IC50,SK-N-DZ,0.0731 µM
same,IC50,SK-PN-DW,0.0111 µM
same,IC50,SK-UT-1,0.0048 µM
same,IC50,697,1.5 nM
same,IC50,A253 cell line,0.0174 µM
same,IC50,A3-KAW,73.5 nM
same,IC50,ATN-1,0.00609 µM
same,IC50,TE-12,33.1 nM
same,IC50,TE-5,0.015 µM
same,IC50,TE-8,1.17 nM
same,IC50,TGW,0.0861 µM
same,IC50,U-266,> 0.102 µM
CCN(CC)CCNC(=O)c1c(C)[nH]c(/C=C2\C(=O)Nc3ccc(F)cc32)c1C [SUNITINIB],IC50,COLO-800,> 8 µM
same,IC50,COR-L88,> 8 µM
same,IC50,DEL,2080 nM
same,IC50,DOHH-2,2330 nM
same,IC50,ES5,> 8 µM
same,IC50,ES6,981 nM
same,IC50,ES7,> 8 µM
same,IC50,EW-13,> 8 µM
same,IC50,EOL1,< 31.2 nM
same,IC50,HC-1,5.43 µM
same,IC50,HCC2218,> 8 µM
same,IC50,HCE-4,3790 nM
same,IC50,HDLM-2,6.32 µM
same,IC50,HL-60,4.21 µM
same,IC50,K562,> 8000 nM
same,IC50,KS-1,1690 nM
same,IC50,LAMA-84,2700 nM
same,IC50,LB2518-MEL,> 8 µM
same,IC50,LB831-BLC,> 8000 nM
same,IC50,Lu-65,> 8 µM
same,IC50,LXF-289 cell line,2730 nM
same,IC50,MLMA,> 8000 nM
same,IC50,MN-60,7.54 µM
same,IC50,MZ1-PC,7300 nM
same,IC50,NB13,> 8000 nM
same,IC50,NB17,> 8000 nM
same,IC50,NB6,> 8 µM
same,IC50,NCI-H1092,> 8 µM
same,IC50,NCI-H1395,> 8 µM
same,IC50,NCI-H2126,> 8 µM
same,IC50,NKM-1,98.5 nM
same,IC50,RKO,> 8 µM
same,IC50,SBC-1,> 8 µM
same,IC50,SCH,> 8 µM
same,IC50,SF-126,3.06 µM
same,IC50,SJSA-1,7.66 µM
same,IC50,SK-N-DZ,4.67 µM
same,IC50,SK-PN-DW,> 8 µM
same,IC50,SK-UT-1,> 8 µM
same,IC50,697,614 nM
same,IC50,A253 cell line,> 8 µM
same,IC50,A3-KAW,1630 nM
same,IC50,ATN-1,3.67 µM
same,IC50,TE-12,805 nM
same,IC50,TE-5,> 8 µM
same,IC50,TE-8,2370 nM
same,IC50,TGW,> 8 µM
same,IC50,U-266,> 8 µM
Cc1ccc(-c2c(C(=O)CCl)n(CCCO)c3ncnc(N)c23)cc1,IC50,COLO-800,> 4 µM
same,IC50,COR-L88,> 4 µM
same,IC50,DEL,> 4000 nM
same,IC50,DOHH-2,2700 nM
same,IC50,ES5,> 4 µM
same,IC50,ES6,> 4000 nM
same,IC50,ES7,> 4 µM
same,IC50,EW-13,> 4 µM
same,IC50,EOL1,> 4000 nM
same,IC50,HC-1,> 4 µM
same,IC50,HCC2218,> 4 µM
same,IC50,HCE-4,> 4000 nM
same,IC50,HDLM-2,> 4 µM
same,IC50,HL-60,> 4 µM
same,IC50,K562,> 4000 nM
same,IC50,KS-1,1050 nM
same,IC50,LAMA-84,> 4000 nM
same,IC50,LB2518-MEL,> 4 µM
same,IC50,LB831-BLC,> 4000 nM
same,IC50,Lu-65,> 4 µM
same,IC50,LXF-289 cell line,> 4000 nM
same,IC50,MLMA,> 4000 nM
same,IC50,MN-60,> 4 µM
same,IC50,MZ1-PC,2920 nM
same,IC50,NB13,978 nM
same,IC50,NB17,1120 nM
same,IC50,NB6,> 4 µM
same,IC50,NCI-H1092,> 4 µM
same,IC50,NCI-H1395,> 4 µM
same,IC50,NCI-H2126,> 4 µM
same,IC50,NKM-1,> 4000 nM
same,IC50,RKO,> 4 µM
same,IC50,SBC-1,> 4 µM
same,IC50,SCH,> 4 µM
same,IC50,SF-126,> 4 µM
same,IC50,SJSA-1,> 4 µM
same,IC50,SK-N-DZ,> 4 µM
same,IC50,SK-PN-DW,> 4 µM
same,IC50,SK-UT-1,> 4 µM
same,IC50,697,293 nM
same,IC50,A253 cell line,> 4 µM
same,IC50,A3-KAW,> 4000 nM
same,IC50,ATN-1,> 4 µM
same,IC50,TE-12,> 4000 nM
same,IC50,TE-5,> 4 µM
same,IC50,TE-8,1970 nM
same,IC50,TGW,> 4 µM
same,IC50,U-266,> 4 µM
